# Test results: patent publication US10913757B2, “Hydroxycinnamic derivatives, methods and uses thereof” (UNIVERSIDADE DO PORTO, priority 2016, dated 2021)
# What was measured:
# [1] = Redox properties by differential pulse and cyclic voltammetry; format: physicochemical
# Summary of the method: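 Compounds were run at 0.1 mM final (from ethanol stock) in phosphate supporting electrolyte at room temperature, using a glassy carbon working, Pt counter and Ag/AgCl reference electrode. CV was at 50 mV s^−1; DPV used a 4 mV step, 50 mV pulse amplitude and 8 mV s^−1. Ep is the oxidation peak potential.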
# [2] = test system: rat liver mitochondria (RLM); assay: Mitochondrial respiration of isolated RLM (Clark-type oxygen electrode); format: biochemical
# Summary of the method: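 O2 uptake was recorded with a Clark electrode through state 2, ADP-driven state 3, state 4, oligomycin (2 μg/ml) and FCCP (1 μM). RCR and ADP/O were calculated.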
# [3] = test system: rat liver mitochondria (RLM); assay: Mitochondrial transmembrane electric potential (ΔΨ) of RLM, safranine fluorescence; format: biochemical
# Summary of the method: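 Rat liver mitochondria; ΔΨ by safranine fluorescence, compounds up to 10 μM, FCCP 1 μM added at end to depolarize. ΔΨ derived from a valinomycin K^+ calibration curve in sucrose/phosphate/Tris pH 7.4 medium; repolarization and lag phase after ADP phosphorylation recorded; means±SEM, n=5.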
structure (smiles),measurement,setting,value
"CS(=O)(=O)[O-].O=C(/C=C/c1cc(O)c(O)c(O)c1)NCCCCCC[P+](c1ccccc1)(c1ccccc1)c1ccccc1 [AntiOxCIN4, (E)-(6-(3-(3,4,5-trihydroxyphenyl)prop-2-enamido)hexyl)triphenylphosphonium methanesulfonate]",reversibility of the oxidation reaction,"[1]; cyclic voltammetry, physiological pH",irreversible oxidation reaction
same,Ep (redox potential),"[1]; physiological pH (7.4), voltammetry, listed as AntiOxClN4, methanesulfonate",0.034 V
same,effect on state 3 respiration,"[2]; all tested concentrations (2.5-10 μM), FIG. 6B-H",decrease
same,ADP/O,"[2]; glutamate/malate, 2.5 μM",2.4 ± 0.1
same,"RCR (respiratory control ratio, state 3/state 4)","[2]; glutamate/malate, 2.5 μM",5.3 ± 0.8
same,ADP/O,"[2]; glutamate/malate, 5 μM",2.2 ± 0.1
same,"RCR (respiratory control ratio, state 3/state 4)","[2]; glutamate/malate, 5 μM",4.3 ± 0.7
same,ADP/O,"[2]; glutamate/malate, 10 μM",2.2 ± 0.1
same,"RCR (respiratory control ratio, state 3/state 4)","[2]; glutamate/malate, 10 μM",3.5 ± 0.5
same,ADP/O,"[2]; succinate, 2.5 μM",1.4 ± 0.1
same,"RCR (respiratory control ratio, state 3/state 4)","[2]; succinate, 2.5 μM",3.4 ± 0.3
same,ADP/O,"[2]; succinate, 5 μM",1.3 ± 0.1
same,"RCR (respiratory control ratio, state 3/state 4)","[2]; succinate, 5 μM",3.0 ± 0.34
same,ADP/O,"[2]; succinate, 10 μM",1.3 ± 0.02
same,"RCR (respiratory control ratio, state 3/state 4)","[2]; succinate, 10 μM",2.7 ± 0.4
same,ADP-induced depolarization (ΔΨ in - mV),"[3]; glutamate/malate, 2.5 μM",188.5 ± 9.6 mV
same,Lag Phase,"[3]; glutamate/malate, 2.5 μM",84.7 ± 7.0 s
same,Maximum potential (ΔΨ in - mV),"[3]; glutamate/malate, 2.5 μM",214.6 ± 10.9 mV
same,Repolarization Potential (ΔΨ in - mV),"[3]; glutamate/malate, 2.5 μM",211.8 ± 10.1 mV
same,ADP-induced depolarization (ΔΨ in - mV),"[3]; glutamate/malate, 5 μM",193.8 ± 11.8 mV
same,Lag Phase,"[3]; glutamate/malate, 5 μM",81.7 ± 6.7 s
same,Maximum potential (ΔΨ in - mV),"[3]; glutamate/malate, 5 μM",216.4 ± 13.1 mV
same,Repolarization Potential (ΔΨ in - mV),"[3]; glutamate/malate, 5 μM",216.1 ± 12.7 mV
same,ADP-induced depolarization (ΔΨ in - mV),"[3]; glutamate/malate, 10 μM",192.7 ± 14.4 mV
same,Lag Phase,"[3]; glutamate/malate, 10 μM",65.7 ± 15.1 s
same,Maximum potential (ΔΨ in - mV),"[3]; glutamate/malate, 10 μM",216.8 ± 15.7 mV
same,Repolarization Potential (ΔΨ in - mV),"[3]; glutamate/malate, 10 μM",207.7 ± 15.6 mV
same,ADP-induced depolarization (ΔΨ in - mV),"[3]; succinate, 2.5 μM",171.2 ± 3.7 mV
same,Lag Phase,"[3]; succinate, 2.5 μM",95.6 ± 7.5 s
same,Maximum potential (ΔΨ in - mV),"[3]; succinate, 2.5 μM",192.0 ± 4.0 mV
same,Repolarization Potential (ΔΨ in - mV),"[3]; succinate, 2.5 μM",192.7 ± 5.4 mV
same,ADP-induced depolarization (ΔΨ in - mV),"[3]; succinate, 5 μM",176.2 ± 5.0 mV
same,Lag Phase,"[3]; succinate, 5 μM",97.8 ± 18.8 s
same,Maximum potential (ΔΨ in - mV),"[3]; succinate, 5 μM",197.6 ± 6.1 mV
same,Repolarization Potential (ΔΨ in - mV),"[3]; succinate, 5 μM",195.4 ± 8.2 mV
same,ADP-induced depolarization (ΔΨ in - mV),"[3]; succinate, 10 μM",170.3 ± 5.2 mV
same,Lag Phase,"[3]; succinate, 10 μM",101.4 ± 23.75 s
same,Maximum potential (ΔΨ in - mV),"[3]; succinate, 10 μM",187.4 ± 8.5 mV
same,Repolarization Potential (ΔΨ in - mV),"[3]; succinate, 10 μM",183.5 ± 10.5 mV
